For 13 compounds, IC50 results are on record in patent US5166357A (priority 1988, dated 1992).

SMILES strings stand for the structures. Where two headings read alike, the source gives them in different places.

For assay [1], the target named is muscarinic receptors. The experiment in a line: Radio ligand binding: displacement of muscarinic agonist 3H-Oxotremorine-M (3H-OXO-M) from rat cerebral cortex membranes. The arrangement: species or system Hooded Lister rats. The note with it: 2nM 3H-OXO-M, 2mM magnesium chloride, tris pH 7.7, 37° C., 30 min.
Assay [2] addresses muscarinic receptors. It counts as binding, Hooded Lister rats. The note with it: 0.27nM 3H-QNB, rat cerebral cortex, tris pH 7.7, 37° C., 30 min.

Take `Nc1ncc(C23CCN(CC2)C3)o1` [Example E5]: the IC50 (in general, the point on the concentration scale where inhibition reaches its midpoint) worked out at 0.018 µM in assay [1] and 11 µM in assay [2].
On the same counts, the results for `Nc1ncc(C2CN3CCC2CC3)o1` (racemic) [Example E2, (±) 3-(2-Amino-1,3-oxazol-5-yl)-1-azabicyclo[2.2.2]octane] are 0.44 µM and 17 µM.
The matching figures for `Nc1nc(C23CCCN(CC2)C3)co1` (racemic) [Example E1, (±) 5-(2-Amino-1,3-oxazol-4-yl)-1-azabicyclo[3.2.1]octane]: 0.25 µM and 42 µM.
The matching figures for `COCc1ncc(C23CCCN(CC2)C3)o1` (racemic) [Example E11, (±)5-(2-Methoxymethyl-1,3-oxazol-5-yl)-1-azabicyclo [3.2.1]octane]: 0.22 µM and 2.6 µM.
With `Nc1nc(C23CCCN(CC2)C3)cs1` (racemic) [Example E4, (±5-(2-Amino-1,3-thiazol-4-yl)-1-azabicyclo[3.2.1]octane], the IC50 was determined as 0.28 µM in assay [1] and 5.6 µM in assay [2].
The matching figures for `Nc1ncc([C@H]2C[C@@H]3CCN(C3)C2)o1` (relative stereo) [Example E16, (±) exo 3-(2-Amino-1,3-oxazol-5-yl)-1-azabicyclo[3.2.1]octane]: 0.56 µM and 42 µM.
On the same counts, the results for `COC(=O)c1ncc(C23CCCN(CC2)C3)o1` (racemic) [Example E9, (±)5-(2-Methoxycarbonyl-1,3-oxazol-5-yl)-1-azabicyclo [3.2.1]octane] are 2 µM and 30.5 µM.
On the same counts, the results for `OCc1ncc(C23CCCN(CC2)C3)o1` (racemic) [Example E10, (±)5-(2-Hydroxymethyl-1,3-oxazol-5-yl)-1-azabicyclo [3.2.1]octane] are 0.206 µM and 7 µM.
In the case of `N#Cc1ncc(C23CCCN(CC2)C3)o1` (racemic) [Example E13, (±)5-(2-Cyano-1,3-oxazol-5-yl)-1-azabicyclo[3.2.1]octane], the concentration for half-maximal inhibition (IC50) came to 0.38 µM in assay [1] and 2.8 µM in assay [2].
The matching figures for `Nc1ncc(C2CN3CCC2C3)o1` (racemic) [Example E6, (±) exo and endo 3-(2-Amino-1,3-oxazol-5-yl)-1-azabicyclo[[2.2.1]heptane]: 0.2 µM and 10.3 µM.
On the same counts, the results for `Nc1ncc(C23CCCN(CC2)C3)o1` (racemic) [Example E3, (±) 5-(2-Amino-1,3-oxazol-5-yl)-1-azabicyclo[3.2.1]-octane] are 0.004 µM and 3.5 µM.
On the same counts, the results for `COCc1ncc(C23CCN(CC2)C3)o1` [Example E17, 4-(2-Methoxymethyl-1,3-oxazol-5-yl)-1-azabicyclo[2.2.1]-heptane] are 1.05 µM and 60 µM.
`FCc1ncc(C23CCCN(CC2)C3)o1` (racemic) [Example E12, (±)5-(2-Fluoromethyl-1,3-oxazol-5-yl)-1-azabicyclo [3.2.1]octane]: the IC50 in assay [1] worked out at 0.005 µM; in assay [2] it was 0.44 µM.
